Results published in patent publication US10563263B2, “Genetic polymorphisms associated with statin response and cardiovascular diseases, methods of detection and uses thereof” (CELERA CORPORATION, priority 2010, dated 2020).

Test system: CHD (fatal CHD, definite non-fatal MI, or revascularization)
Assay: CARE: SNP by pravastatin treatment interaction, logistic regression (synergy index), CHD endpoint
Type: in vivo, human
Settings: for OR (synergy index, SNP by pravastatin treatment interaction): CARE; for OR (synergy index), CARE, Prava vs Placebo: CHD endpoint
Source text: CARE was a secondary prevention trial and WOSCOPS was a primary prevention trial.
The CHD endpoint was defined in the analyses herein of CARE as a composite endpoint of fatal CHD, definite non-fatal MI, or revascularization, and was defined in the analyses herein of WOSCOPS as a composite endpoint of death from CHD, nonfatal MI, or revascularization. In both the CARE and WOSCOPS analyses herein, the CVD endpoint was defined as a composite endpoint of CHD or stroke. […] Revascularization, which can include percutaneous transluminal coronary angioplasty (PTCA), stent placement, and coronary artery bypass graft (CABG), are medical interventions that indicate the presence of CHD.
Cohort and case-only study designs were used to identify SNPs associated with response to statin treatment.
For each SNP, a logistic regression model having treatment status as the dependent variable and SNP as the independent predictor variable was performed, with terms for age, sex and race included in the model as covariates. The anti-log of the regression coefficient corresponding to the SNP is an estimate of the synergy index (SI) (Davis et al., “Imputing gene-treatment interactions when the genotype distribution is unknown using case-only and putative placebo analyses-a new method for the Genetics of Hypertension Associated Treatment (GenHAT) study”, Statistics in Medicine 23: (2004), pages 2413-2427). The SI is a ratio of odds ratios: for example in the CARE and WOSCOPS studies, the SI represents the factor by which the odds-ratio of statin treatment, compared with placebo, among major homozygous individuals is multiplied by in order to obtain the odds-ratio of treatment vs. placebo among heterozygous individuals; and multiplied by a second time to obtain the odds-ratio of treatment vs. placebo in minor homozygous individuals. The case-only study design results in a valid estimate of the SI under the assumption that genotype and treatment are independent in the population. In a randomized clinical trial, genotype and treatment are independent by design. The p-value for the regression coefficient corresponding to the SNP results from a test of the null hypothesis that the regression coefficient is equal to zero (SI is equal to one) and thus small p-values indicate the SI is unlikely equal to one and that the effect of treatment likely differs by genotype.
A case-only study design was used to test whether the reduction of CHD events by statin therapy (for CARE and WOSCOPS studies) differed according to genotype (a treatment by SNP interaction) for each SNP evaluated in the study.

## CC[C@H](C)C(=O)O[C@H]1C[C@H](O)C=C2C=C[C@H](C)[C@H](CC[C@@H](O)C[C@@H](O)CC(=O)O)[C@H]21 [Pravastatin, pravastatin]
rs992695, Imputed, allele C, model ADD, NMISS 790, 95% CI 0.4976-0.8019
  OR (synergy index, SNP by pravastatin treatment interaction): 0.6317
rs992695, Imputed, allele C, model DOM, NMISS 790, 95% CI 0.4546-0.8068
  OR (synergy index, SNP by pravastatin treatment interaction): 0.6056
rs9881685, Imputed, allele A, model ADD, NMISS 799, 95% CI 0.3695-0.7488
  OR (synergy index, SNP by pravastatin treatment interaction): 0.526
rs9881685, Imputed, allele A, model DOM, NMISS 799, 95% CI 0.3327-0.7106
  OR (synergy index, SNP by pravastatin treatment interaction): 0.4862
rs9936999, Imputed, allele G, model DOM, NMISS 485, 95% CI 1.294-2.746
  OR (synergy index, SNP by pravastatin treatment interaction): 1.885
SNP rs198462 (A1 G, A2 A), rec model, Caseonly
  OR (synergy index), CARE, Prava vs Placebo: 1.57
SNP rs198476 (A1 G, A2 A), rec model, cohort
  OR (synergy index), CARE, Prava vs Placebo: 1.58
SNP rs471579 (A1 A, A2 C), add model, Caseonly
  OR (synergy index), CARE, Prava vs Placebo: 1.26
SNP rs1324012 (A1 A, A2 G), add model, Caseonly
  OR (synergy index), CARE, Prava vs Placebo: 0.78
SNP rs1917527 (A1 A, A2 C), rec model, Caseonly
  OR (synergy index), CARE, Prava vs Placebo: 0.34
SNP rs2768652 (A1 C, A2 T), add model, cohort
  OR (synergy index), CARE, Prava vs Placebo: 1.22
SNP rs6563805 (A1 A, A2 G), add model, cohort
  OR (synergy index), CARE, Prava vs Placebo: 0.76
SNP rs7873371 (A1 A, A2 G), add model, Caseonly
  OR (synergy index), CARE, Prava vs Placebo: 1.25
SNP rs12553453 (A1 C, A2 A), add model, cohort
  OR (synergy index), CARE, Prava vs Placebo: 1.22
SNP rs12635482 (A1 C, A2 A), rec model, cohort
  OR (synergy index), CARE, Prava vs Placebo: 0.54
rs1948 allele A vs G (ref), Source CaseOnly
  CARE OR: 1.52
rs151806 allele G vs A (ref), Source cohort
  CARE OR: 0.60
rs205279 allele A vs G (ref), Source Caseonly
  CARE OR: 1.94
rs238272 allele A vs G (ref), Source CaseOnly
  CARE OR: 1.44
rs312929 allele G vs A (ref), Source cohort
  CARE OR: 0.72
rs316720 allele G vs A (ref), Source cohort
  CARE OR: 0.67
rs331555 allele A vs C (ref), Source cohort
  CARE OR: 0.72
rs354342 allele A vs G (ref), Source Caseonly
  CARE OR: 0.70
rs453625, allele A1 A (non-ref), A2 G (ref), source cohort, endpoint/model not given
  CARE OR: 0.66
rs610118 allele G vs A (ref), Source cohort
  CARE OR: 0.43
rs669684 allele G vs A (ref), Source cohort
  CARE OR: 0.69
rs842796 allele A vs G (ref), Source cohort
  CARE OR: 1.72
rs886469 allele G vs A (ref), Source cohort
  CARE OR: 0.70
rs969356 allele G vs A (ref), Source cohort
  CARE OR: 0.69
rs1035618 allele A vs C (ref), Source Caseonly
  CARE OR: 1.38
rs1076733, allele A1 A (non-ref), A2 G (ref), source cohort, endpoint/model not given
  CARE OR: 0.70
rs1182878, allele A1 A (non-ref), A2 G (ref), source cohort, endpoint/model not given
  CARE OR: 0.79
rs1343563 allele C vs A (ref), Source cohort
  CARE OR: 0.61
rs1349282 allele A vs G (ref), Source cohort
  CARE OR: 0.55
rs1382787 allele G vs A (ref), Source cohort
  CARE OR: 1.37
rs1474396, allele A1 A (non-ref), A2 C (ref), source cohort, endpoint/model not given
  CARE OR: 1.35
rs1615197 allele G vs A (ref), Source CaseOnly
  CARE OR: 1.54
rs1884897 allele A vs G (ref), Source cohort
  CARE OR: 2.24
rs2008165 allele G vs A (ref), Source cohort
  CARE OR: 0.57
rs2023650 allele A vs G (ref), Source cohort
  CARE OR: 0.76
rs2060411 allele A vs G (ref), Source cohort
  CARE OR: 1.37
rs2104506 allele A vs C (ref), Source cohort
  CARE OR: 0.75
rs2129571, allele A1 A (non-ref), A2 G (ref), source cohort, endpoint/model not given
  CARE OR: 0.62
rs2145540 allele A vs G (ref), Source cohort
  CARE OR: 0.51
rs2268650 allele A vs G (ref), Source cohort
  CARE OR: 0.64
rs2273816 allele A vs G (ref), Source CaseOnly
  CARE OR: 1.56
rs2290193, allele A1 C (non-ref), A2 A (ref), source cohort, endpoint/model not given
  CARE OR: 0.53
rs2376764 allele A vs G (ref), Source Caseonly
  CARE OR: 0.61
rs2418412 allele G vs A (ref), Source cohort
  CARE OR: 2.20
rs2483641, allele A1 A (non-ref), A2 G (ref), source cohort, endpoint/model not given
  CARE OR: 0.65
rs2534752 allele G vs A (ref), Source cohort
  CARE OR: 1.60
rs2626130 allele G vs A (ref), Source cohort
  CARE OR: 1.29
rs2695026 allele A vs G (ref), Source Caseonly
  CARE OR: 0.70
rs2793086 allele C vs A (ref), Source cohort
  CARE OR: 0.61
rs2941528 allele A vs G (ref), Source CaseOnly
  CARE OR: 0.72
rs3000490 allele G vs A (ref), Source cohort
  CARE OR: 1.45
rs3213616 allele A vs G (ref), Source cohort
  CARE OR: 0.62
rs3732788 allele G vs A (ref), Source cohort
  CARE OR: 0.56
rs3798544 allele A vs G (ref), Source cohort
  CARE OR: 1.47
rs3998860 allele A vs G (ref), Source cohort
  CARE OR: 0.58
rs4289236 allele A vs G (ref), Source cohort
  CARE OR: 1.37
rs4611134 allele A vs G (ref), Source cohort
  CARE OR: 1.54
rs4643388 allele G vs A (ref), Source cohort
  CARE OR: 1.32
rs4682522 allele C vs A (ref), Source cohort
  CARE OR: 0.59
rs4830819 allele G vs A (ref), Source cohort
  CARE OR: 0.57
rs4869033 allele G vs A (ref), Source cohort
  CARE OR: 0.31
rs4924215 allele A vs G (ref), Source cohort
  CARE OR: 1.77
rs4986146 allele A vs G (ref), Source cohort
  CARE OR: 0.62
rs4993917 allele A vs C (ref), Source cohort
  CARE OR: 0.57
rs5017584 allele A vs G (ref), Source cohort
  CARE OR: 1.61
rs6075209 allele A vs G (ref), Source cohort
  CARE OR: 0.63
rs6080603 allele A vs C (ref), Source cohort
  CARE OR: 0.59
rs6491586 allele G vs A (ref), Source cohort
  CARE OR: 1.59
rs6505669 allele G vs A (ref), Source cohort
  CARE OR: 1.70
rs6911817, allele A1 A (non-ref), A2 G (ref), source cohort, endpoint/model not given
  CARE OR: 2.15
rs7094941, allele A1 G (non-ref), A2 A (ref), source cohort, endpoint/model not given
  CARE OR: 0.78
rs7179134 allele A vs G (ref), Source cohort
  CARE OR: 3.54
rs7193741 allele A vs C (ref), Source cohort
  CARE OR: 2.16
rs7327364 allele A vs G (ref), Source cohort
  CARE OR: 0.69
rs7497613, allele A1 A (non-ref), A2 G (ref), source cohort, endpoint/model not given
  CARE OR: 0.65
rs7616936, allele A1 C (non-ref), A2 A (ref), source cohort, endpoint/model not given
  CARE OR: 1.47
rs7705993 allele G vs A (ref), Source cohort
  CARE OR: 1.50
rs7767024, allele A1 A (non-ref), A2 G (ref), source cohort, endpoint/model not given
  CARE OR: 1.32
rs7910196, allele A1 G (non-ref), A2 A (ref), source cohort, endpoint/model not given
  CARE OR: 1.36
rs8051893 allele A vs G (ref), Source cohort
  CARE OR: 0.69
rs8109631 allele A vs G (ref), Source cohort
  CARE OR: 1.53
rs9375683 allele G vs A (ref), Source cohort
  CARE OR: 1.63
rs9436636 allele A vs G (ref), Source cohort
  CARE OR: 1.34
rs9446187 allele A vs G (ref), Source cohort
  CARE OR: 1.92
rs9658127, allele A1 A (non-ref), A2 G (ref), source cohort, endpoint/model not given
  CARE OR: 2.03
rs10088505 allele A vs G (ref), Source Caseonly
  CARE OR: 1.52
rs10088524, allele A1 G (non-ref), A2 A (ref), source cohort, endpoint/model not given
  CARE OR: 1.46
rs10103297, allele A1 A (non-ref), A2 G (ref), source cohort, endpoint/model not given
  CARE OR: 1.84
rs10120126 allele G vs A (ref), Source CaseOnly
  CARE OR: 0.53
rs10189905 allele C vs A (ref), Source cohort
  CARE OR: 0.50
rs10500736 allele G vs A (ref), Source cohort
  CARE OR: 0.61
rs10517923 allele A vs G (ref), Source cohort
  CARE OR: 1.62
rs10814422 allele G vs A (ref), Source cohort
  CARE OR: 0.64
rs10849442 allele A vs G (ref), Source Caseonly
  CARE OR: 0.56
rs10875941, allele A1 G (non-ref), A2 A (ref), source cohort, endpoint/model not given
  CARE OR: 0.73
rs10973013 allele A vs G (ref), Source cohort
  CARE OR: 0.59
rs11076320 allele C vs A (ref), Source cohort
  CARE OR: 0.64
rs11082492 allele A vs C (ref), Source cohort
  CARE OR: 1.46
rs11925875 allele A vs G (ref), Source cohort
  CARE OR: 0.72
rs12556591 allele G vs A (ref), Source cohort
  CARE OR: 0.57
rs12657484, allele A1 G (non-ref), A2 A (ref), source cohort, endpoint/model not given
  CARE OR: 1.36
rs13279522 allele G vs A (ref), Source cohort
  CARE OR: 0.62
rs13314266 allele G vs A (ref), Source cohort
  CARE OR: 0.60
rs13318232 allele G vs A (ref), Source cohort
  CARE OR: 0.60
rs16861467, allele A1 G (non-ref), A2 A (ref), source cohort, endpoint/model not given
  CARE OR: 0.60
rs17076974 allele A vs G (ref), Source cohort
  CARE OR: 1.46
rs17546598 allele A vs G (ref), Source cohort
  CARE OR: 1.57
rs17706237 allele G vs A (ref), Source CaseOnly
  CARE OR: 1.80
rs17716275, allele A1 A (non-ref), A2 G (ref), source cohort, endpoint/model not given
  CARE OR: 1.91
rs72746987 allele A vs G (ref), Source cohort
  CARE OR: 0.43
